Measurements published in US20150064255A1, “NANOSTRUCTURES FOR TREATING CANCERS AND OTHER CONDITIONS” (Northwestern University, priority 2012, published 2015).

What was measured:
SR-B1 = target: T1, SR-B1 (Homo sapiens, UniProt Q8WTV0); assay: BLT-1 cholesterol flux assays in SUDHL-4 cells; assay type: cell-based; conditions: SUDHL-4 cells pre-treated with 10 μM BLT-1 for 2 hr
T1 construct: treatment of SUDHL-4 cells with BLT-1 allowed a measurement of engagement and cholesterol flux through SR-B1; endogenous in cells; host or cells: SUDHL-4 cells
T1 sequence (Q8WTV0 1-552): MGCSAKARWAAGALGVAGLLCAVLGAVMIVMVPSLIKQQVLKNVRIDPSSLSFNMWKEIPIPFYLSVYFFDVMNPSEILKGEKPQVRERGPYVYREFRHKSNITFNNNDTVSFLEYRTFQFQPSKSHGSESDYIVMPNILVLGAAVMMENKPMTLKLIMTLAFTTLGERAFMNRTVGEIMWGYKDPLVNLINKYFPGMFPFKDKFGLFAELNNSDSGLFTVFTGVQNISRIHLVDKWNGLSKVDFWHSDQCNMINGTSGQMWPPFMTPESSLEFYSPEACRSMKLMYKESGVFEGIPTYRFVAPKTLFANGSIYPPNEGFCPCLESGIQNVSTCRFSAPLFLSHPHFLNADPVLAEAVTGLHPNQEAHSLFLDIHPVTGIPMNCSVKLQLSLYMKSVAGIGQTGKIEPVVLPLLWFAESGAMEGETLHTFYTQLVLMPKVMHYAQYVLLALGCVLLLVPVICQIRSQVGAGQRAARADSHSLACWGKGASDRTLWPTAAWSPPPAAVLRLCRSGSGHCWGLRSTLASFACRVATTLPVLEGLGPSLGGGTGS
Protocol: Blocker of lipid transport-1 (BLT-1) is a small molecule that binds cysteine-384 in the extracellular loop domain of SR-B1 and inhibits cholesterol flux through SR-B1 without altering the binding of HDL particles to the receptor. Thus, treatment of SUDHL-4 cells with BLT-1 allowed a measurement of engagement and cholesterol flux through SR-B1.
Alterations in cholesterol flux after addition of blocker of lipid transport 1 (BLT-1) were measured as described above; however, cells were pre-treated with 10 μM BLT-1 (2-hexyl-1-cyclopentanone thiosemicarbazone, ChemBridge Corporation) for 2 hr prior to cell treatments. Following cholesterol influx or efflux, the cells were collected in fresh media for measurement of cholesterol flux as previously described. Efflux is expressed as a percentage of the control cells, which were not treated with BLT-1. Influx is expressed as a percentage of the control cells, which were not treated with BLT-1.

Ramos cells = assay: MTS cell viability assay; assay type: cell-based, human; conditions: untreated control set to 100%
Description: Ramos and SUDHL-4 cell lines are GC-derived B cell lines from BL and DLBCL, respectively. In addition, we chose to study the ABC-like DLBCL line, LY3. Jurkat cells and normal human lymphocytes provided SR-B1 receptor negative controls. In addition, we also chose two primary cells known to express SR-B1 that are critical cell types naturally engaged by HDLs, hepatocytes and macrophages. For each of the cell types, we measured cell viability by an MTS assay following treatment with human serum derived HDL (hHDL) or HDL-NPs. MTS is a colorimetric assay where the magnitude of absorbance is proportional to cell viability. For each treatment, and for each comparison made throughout our studies, we added equivalent doses of hHDL and HDL-NPs based upon the amount of apolipoprotein A-1 (Apo A1). […] Treatment with hHDL or HDL-NPs had no effect in primary hepatocytes or macrophage cells (FIGS. 3C and 3D). […]
For primary human hepatocytes and CD14+ monocytes, 9×10^3 cells/90 μL were seeded in 96-well plates and allowed to attach, and differentiate in the case of the CD14+ monocytes, for 24 hours prior to initiation of treatment. […] The absorbance was read at 490 nm using a microplate reader (MRX Revelation; DYNEX Technologies) and was expressed as a percentage of the control group. […]

Row | SMILES | cholesterol flux to hHDL and HDL-NPs (SR-B1) | relative absorbance, MTS assay (cell viability) (Ramos cells)
1 | CCCCCCC1CCCC1=NNC(N)=S (centres unmarked) [BLT-1, 2-hexyl-1-cyclopentanone thiosemicarbazone] | inhibited cholesterol flux | –
2 | CCCCCCCCCCCCCCCC(=O)OC[C@H](COP(=O)(O)OCCNC(=O)CCSSc1ccccn1)OC(=O)CCCCCCCCCCCCCCC [PDP PE, 1,2-dipalmitoyl-sn-glycero-3-phosphoethanolamine-N-[3-(2-pyridyldithio)propionate]] | – | relatively small but statistically significant reduction
